Assay results taken from ChEMBL document CHEMBL1130362, “Pyrrolylquinoxalinediones: The importance of pyrrolic substitution on AMPA receptor binding” (Bioorg Med Chem Lett, 1997).
pKi: −log10 of the molar value.

Experiments:
[1] = biological target: Glutamate receptor ionotropic AMPA (Homo sapiens, UniProt P42261+P42262+P42263+P48058)
Description: Displacement of [3H]AMPA from AMPA receptor

[2] = biological target: Glutamate receptor ionotropic, NMDA 2C (Rattus norvegicus, UniProt Q00961); assay: Ability to displace [3H]glycine from NMDA receptor
[3] = system: Mus musculus; assay: In vivo AMPA antagonism to protect 50% animals after intraperitoneal administration of the compound; assay type: functional; conditions: ip

Glutamate receptor ionotropic, NMDA 2C, sequence (Q00961 whole entry): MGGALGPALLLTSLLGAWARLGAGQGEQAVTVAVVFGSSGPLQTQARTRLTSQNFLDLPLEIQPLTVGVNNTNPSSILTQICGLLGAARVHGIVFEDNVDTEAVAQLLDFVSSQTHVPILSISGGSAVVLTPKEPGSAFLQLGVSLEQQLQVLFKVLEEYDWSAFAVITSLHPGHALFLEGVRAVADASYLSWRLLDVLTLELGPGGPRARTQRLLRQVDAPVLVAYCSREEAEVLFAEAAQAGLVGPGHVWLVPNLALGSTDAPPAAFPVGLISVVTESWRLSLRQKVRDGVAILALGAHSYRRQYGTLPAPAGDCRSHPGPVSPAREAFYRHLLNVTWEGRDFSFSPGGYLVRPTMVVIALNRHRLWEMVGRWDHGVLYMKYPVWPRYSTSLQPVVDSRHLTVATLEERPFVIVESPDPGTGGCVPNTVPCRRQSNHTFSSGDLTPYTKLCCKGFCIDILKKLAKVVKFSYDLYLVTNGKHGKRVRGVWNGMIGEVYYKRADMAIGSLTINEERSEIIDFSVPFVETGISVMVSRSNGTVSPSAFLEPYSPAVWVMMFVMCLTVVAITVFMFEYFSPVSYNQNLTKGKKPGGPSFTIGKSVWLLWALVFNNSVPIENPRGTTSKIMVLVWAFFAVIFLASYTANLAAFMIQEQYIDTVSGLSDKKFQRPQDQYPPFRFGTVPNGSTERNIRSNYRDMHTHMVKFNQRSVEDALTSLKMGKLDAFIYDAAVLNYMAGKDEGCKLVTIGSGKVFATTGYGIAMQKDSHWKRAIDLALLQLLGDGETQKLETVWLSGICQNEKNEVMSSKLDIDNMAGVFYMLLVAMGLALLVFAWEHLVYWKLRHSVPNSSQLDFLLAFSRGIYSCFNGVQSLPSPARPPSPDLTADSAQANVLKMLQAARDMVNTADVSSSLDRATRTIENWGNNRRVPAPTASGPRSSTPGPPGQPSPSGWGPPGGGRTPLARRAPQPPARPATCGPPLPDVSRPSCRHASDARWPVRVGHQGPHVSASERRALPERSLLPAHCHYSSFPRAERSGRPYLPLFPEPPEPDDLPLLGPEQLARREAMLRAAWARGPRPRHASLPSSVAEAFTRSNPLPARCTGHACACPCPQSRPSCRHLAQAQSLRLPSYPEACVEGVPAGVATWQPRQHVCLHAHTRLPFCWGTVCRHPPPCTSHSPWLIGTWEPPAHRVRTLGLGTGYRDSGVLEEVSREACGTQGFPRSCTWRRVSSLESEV

pKi [1] | pKi [2] | SMILES | ED50 [3]
6.60 | – | O=C(O)Cn1c(=O)c(=O)[nH]c2cc(C(F)(F)F)c(-n3ccc(/C=N/OCc4ccccc4)c3)cc21 | –
7.82 | < 4.52 | O=C(O)Cn1c(=O)c(=O)[nH]c2cc(C(F)(F)F)c(-n3ccc(CNC(=O)Nc4ccccc4)c3)cc21 | 18 mg/kg
< 4.60 | – | O=C(NCc1ccccc1)c1cccn1-c1cc2nc(O)c(O)nc2cc1C(F)(F)F | –
7.15 | < 4.52 | O=C(O)Cn1c(=O)c(=O)[nH]c2cc([N+](=O)[O-])c(-n3ccc(CNC(=O)Nc4ccccc4)c3)cc21 | > 30 mg/kg
6.60 | < 4.52 | O=C(NCc1ccn(-c2cc3nc(O)c(O)nc3cc2[N+](=O)[O-])c1)Nc1ccccc1 | 30 mg/kg
5.52 | – | Oc1nc2cc(-n3cccc3)c(C(F)(F)F)cc2nc1O | –
6.87 | – | O=c1[nH]c2cc(-n3ccnc3)c([N+](=O)[O-])cc2[nH]c1=O [YM-90K] | –
5.00 | – | NCc1ccn(-c2cc3c(cc2C(F)(F)F)[nH]c(=O)c(=O)n3CC(=O)O)c1 | –
6.08 | – | NCc1ccn(-c2cc3c(cc2[N+](=O)[O-])[nH]c(=O)c(=O)n3CC(=O)O)c1 | –
8.30 | < 4.52 | O=C(O)Cn1c(=O)c(=O)[nH]c2cc(C(F)(F)F)c(-n3ccc(CNC(=O)Nc4ccc(C(F)(F)F)cc4)c3)cc21 | 14 mg/kg
< 4.60 | – | O=C(O)c1cccn1-c1cc2nc(O)c(O)nc2cc1C(F)(F)F | –
6.01 | – | NCc1ccn(-c2cc3nc(O)c(O)nc3cc2C(F)(F)F)c1 | –
< 4.60 | – | COC(=O)c1cccn1-c1cc2nc(O)c(O)nc2cc1C(F)(F)F | –
6.19 | – | O=Cc1ccn(-c2cc3nc(O)c(O)nc3cc2C(F)(F)F)c1 | –
5.70 | – | Cc1ccc(C)n1-c1cc2c(cc1C(F)(F)F)[nH]c(=O)c(=O)n2CC(=O)O | –
5.70 | – | NCc1ccn(-c2cc3nc(O)c(O)nc3cc2[N+](=O)[O-])c1 | –
7.12 | < 4.52 | CC(=O)NCc1ccn(-c2cc3c(cc2C(F)(F)F)[nH]c(=O)c(=O)n3CC(=O)O)c1 | 10 mg/kg
8.30 | < 4.52 | O=C(O)Cn1c(=O)c(=O)[nH]c2cc(C(F)(F)F)c(-n3ccc(CNC(=O)Nc4ccc([N+](=O)[O-])cc4)c3)cc21 | 5.5 mg/kg
6.40 | – | O=[N+]([O-])c1cc2nc(O)c(O)nc2cc1-n1cccc1 | –
7.15 | – | O=C(O)Cn1c(=O)c(=O)[nH]c2cc([N+](=O)[O-])c(-n3cccc3)cc21 | –
< 4.60 | – | Cc1ccc(C)n1-c1cc2nc(O)c(O)nc2cc1C(F)(F)F | –
6.05 | – | CCN(CC)Cc1ccn(-c2cc3c(cc2C(F)(F)F)[nH]c(=O)c(=O)n3CC(=O)O)c1 | –
6.74 | – | O=C(O)Cn1c(=O)c(=O)[nH]c2cc(C(F)(F)F)c(-n3cccc3)cc21 | –
5.52 | – | O=C(O)Cn1c(=O)c(=O)[nH]c2cc([N+](=O)[O-])c(-n3ccc(CC(=O)N4CCCCC4)c3)cc21 | –
4.70 | – | Cc1ccc(C)n1-c1cc2nc(O)c(O)nc2cc1[N+](=O)[O-] | –
– | – | NS(=O)(=O)c1cccc2c1c([N+](=O)[O-])cc1nc(O)c(O)nc12 [NBQX] | > 50 mg/kg

SMILES | pKi [1] | pKi [2] | ED50 [3]
O=C(O)Cn1c(=O)c(=O)[nH]c2cc(C(F)(F)F)c(-n3ccc(CNC(=O)Cc4ccccc4)c3)cc21 | 6.85 | – | –
CN(Cc1ccccc1)Cc1ccn(-c2cc3nc(O)c(O)nc3cc2[N+](=O)[O-])c1 | 6.06 | – | –
O=C(O)Cn1c(=O)c(=O)[nH]c2cc(C(F)(F)F)c(-n3ccc(CNC(=O)NCc4ccccc4)c3)cc21 | 7.31 | < 4.52 | 30 mg/kg
O=C(O)Cn1c(=O)c(=O)[nH]c2cc(C(F)(F)F)c(-n3ccc(CNC(=O)c4ccccc4)c3)cc21 | 7.11 | < 4.52 | > 30 mg/kg
O=C(O)Cn1c(=O)c(=O)[nH]c2cc([N+](=O)[O-])c(-n3ccc(CNC(=O)c4ccncc4)c3)cc21 | 6.55 | – | –
O=C(O)Cn1c(=O)c(=O)[nH]c2cc([N+](=O)[O-])c(-n3ccc(/C=N/OCc4ccccc4)c3)cc21 | 6.68 | – | –
O=C(O)Cn1c(=O)c(=O)[nH]c2cc([N+](=O)[O-])c(-n3ccc(CNC(=O)NCCc4ccncc4)c3)cc21 | 7.02 | – | –
O=C(NCc1ccn(-c2cc3nc(O)c(O)nc3cc2[N+](=O)[O-])c1)Nc1ccncc1 | 6.96 | – | –
O=C(O)Cn1c(=O)c(=O)[nH]c2cc([N+](=O)[O-])c(-n3ccc(CNC(=O)CCc4ccccc4)c3)cc21 | 6.30 | – | –
O=C(O)Cn1c(=O)c(=O)[nH]c2cc(C(F)(F)F)c(-n3ccc(CNC(=O)Nc4ccc(Br)cc4)c3)cc21 | 8.40 | < 4.52 | 4.1 mg/kg
